Measurements taken from patent US20220016101A1 (ACADIA Pharmaceuticals Inc., priority 2018, published 2022).

Test system: patients with MDD and an inadequate response to an SSRI or SNRI
Assay: Massachusetts General Hospital Sexual Functioning Index (MGH-SFI), Study ACP-103-042
Format: in vivo, human
Conditions: for MGH-SFI 05: Overall Sexual Satisfaction, Effect Size (Cohen's d) / MGH-SFI 06: Overall Improvement Since Last Medication Change, Effect Size (Cohen's d) / MGH-SFI 04: (Men) Ability to Get and Maintain an Erection, Effect Size (Cohen's d) / MGH-SFI 02: Ability to Get Sexually Aroused or Excited, Effect Size (Cohen's d) / MGH-SFI 03: Ability to Achieve Orgasm, Effect Size (Cohen's d) / MGH-SFI 01: Interest in Sex, Effect Size (Cohen's d): PIM 34 mg vs placebo; for MGH-SFI 04: (Men) Ability to Get and Maintain an Erection, Change from Baseline to Week 5 Mean (SE) / MGH-SFI 04: (Men) Ability to Get and Maintain an Erection, Change from Baseline to Week 5 Median / MGH-SFI 04: (Men) Ability to Get and Maintain an Erection, Week 5 Mean (SE) / MGH-SFI 04: (Men) Ability to Get and Maintain an Erection, Week 5 Median / MGH-SFI 05: Overall Sexual Satisfaction, Change from Baseline to Week 5 Mean (SE) / MGH-SFI 05: Overall Sexual Satisfaction, Change from Baseline to Week 5 Median / MGH-SFI 05: Overall Sexual Satisfaction, Week 5 Mean (SE) / MGH-SFI 05: Overall Sexual Satisfaction, Week 5 Median / MGH-SFI 06: Overall Improvement Since Last Medication Change, Week 5 Mean (SE) / MGH-SFI 06: Overall Improvement Since Last Medication Change, Week 5 Median / MGH-SFI 02: Ability to Get Sexually Aroused or Excited, Change from Baseline to Week 5 Mean (SE) / MGH-SFI 02: Ability to Get Sexually Aroused or Excited, Change from Baseline to Week 5 Median / MGH-SFI 02: Ability to Get Sexually Aroused or Excited, Week 5 Mean (SE) / MGH-SFI 02: Ability to Get Sexually Aroused or Excited, Week 5 Median / MGH-SFI 03: Ability to Achieve Orgasm, Change from Baseline to Week 5 Mean (SE) / MGH-SFI 03: Ability to Achieve Orgasm, Change from Baseline to Week 5 Median / MGH-SFI 03: Ability to Achieve Orgasm, Week 5 Mean (SE) / MGH-SFI 03: Ability to Achieve Orgasm, Week 5 Median / MGH-SFI 01: Interest in Sex, Change from Baseline to Week 5 Mean (SE) / MGH-SFI 01: Interest in Sex, Change from Baseline to Week 5 Median / MGH-SFI 01: Interest in Sex, Week 5 Mean (SE) / MGH-SFI 01: Interest in Sex, Week 5 Median: PIM 34 mg; for MGH-SFI 01: Interest in Sex, Change from Baseline to Week 5 Mean (SE) / MGH-SFI 01: Interest in Sex, Change from Baseline to Week 5 Median / MGH-SFI 01: Interest in Sex, Week 5 Mean (SE) / MGH-SFI 01: Interest in Sex, Week 5 Median / MGH-SFI 01: Interest in Sex, Effect Size (Cohen's d): subgroup >50 years
From the text: “Massachusetts General Hospital Sexual Functioning Index (MGH-SFI)” is described, for instance, in Labbate and Lare, 2001, Psychother Psychosom. 70(4):221-225. This is a patient facing questionnaire that quantifies sexual dysfunction into 5 functional domains (“interest in sex,” “sexual arousal,” “ability to achieve orgasm,” “ability to maintain erection” (males only), and “sexual satisfaction”). Patients rate each item using a 6-point scale ranging from 1 (good function) to 6 (poor function). High scores indicate poor sexual functioning. […] The determination of the subject's status and eligibility for randomization in Stage 2 was made in a double-blind manner. […] Sexual functioning was assessed using the Massachusetts General Hospital Sexual Functioning Index or MGH-SFI (Labbate and Lare, 2001, Psychother Psychosom. 70(4):221-225). This is a patient facing questionnaire that quantifies sexual dysfunction into 5 functional domains (“interest in sex,” “sexual arousal,” “ability to achieve orgasm,” “ability to maintain erection” [malesonly], and “sexual satisfaction”). Patients rate each item using a 6-point scale ranging from 1 (good function) to 6 (poor function). The time frame for this scale is the past month. This scale was administered at baseline and Week 5 in both stages of the study. High scores indicate poor sexual functioning. In ACP-103-042 the mean scores for MGH-SFI at Baseline was calculated over all 5 domains for males and the 4 domains for females. For MGH-SFI (follow-up version) at Study Weeks 5 and 10, the mean was calculated in the same way as MGH-SFI at Baseline. […] Tables 10-27 summarize the detailed data of MGH-SFI individual items of the overall study group (Tables 10-15), the subgroup of age of <=50 (Tables 16-21) and the subgroup of age of >50 (Table 21-26). In Tables 9-26, ANCOVA=analysis of covariance; OC=observed cases; LSM=least squares mean; CI=confidence interval; SD=standard deviation; SE=standard error. Stage 1: Baseline=Study Week 0, Week 5=Study Week 5; Stage 2: Baseline=Study Week 5, Week 5=Study Weeks 10. LSM from the stage-specific ANCOVA analysis with the change from baseline as the outcome, treatment group as a factor, and the corresponding Baseline value as a covariate. 2-sided p-value for treatment difference from the stage-specific ANCOVA analysis. An treatment effect size (Cohen's d) is calculated using the formula: Effect Size=Least Square mean difference between PIM and PBO/SD. The corresponding 95% confidence interval for an effect size is calculated based on the theoretical probability distribution of the effect size. […] Tables 10-15 and 28-38 summarize the detailed data of MGH-SFI individual items of the overall study group (Tables 10-15), the female subgroup (Tables 33-37) and the male subgroup (Table 38-43). An treatment effect size (Cohen's d) is calculated using the formula: Effect Size=Least Square mean difference between PIM and PBO/SD. The corresponding 95% confidence interval for an effect size is calculated based on the theoretical probability distribution of the effect size. In Tables 10-15 and 28-38, ANCOVA=analysis of covariance; OC=observed cases; LSM=least squares mean; CI=confidence interval; SD=standard deviation; SE=standard error. Stage 1: Baseline=Study Week 0, Week 5=Study Week 5; Stage 2: Baseline=Study Week 5, Week 5=Study Weeks 10. LSM from the stage-specific ANCOVA analysis with the change from baseline as the outcome, treatment group as a factor, and the corresponding Baseline value as a covariate. 2-sided p-value for treatment difference from the stage-specific ANCOVA analysis. An treatment effect size (Cohen's d) is calculated using the formula: Effect Size=Least Square mean difference between PIM and PBO/SD. The corresponding 95% confidence interval for an effect size is calculated based on the theoretical probability distribution of the effect size.

[1] = subgroup <=50 years old, Stage 1
[2] = subgroup <=50 years old, Stage 2
[3] = subgroup >50 years old, Stage 1
[4] = subgroup >50 years old, Stage 2

CC(C)COc1ccc(CNC(=O)N(Cc2ccc(F)cc2)C2CCN(C)CC2)cc1 [pimavanserin, N-(4-Fluorophenylmethyl)-N-(1-methylpiperidin-4-yl)-N′-(4-(2-methylpropyloxy)phenylmethyl)carbamide]
MGH-SFI 05: Overall Sexual Satisfaction, Effect Size (Cohen's d) [1]: 0.304 | MGH-SFI 06: Overall Improvement Since Last Medication Change, Effect Size (Cohen's d) [1]: 0.622 | MGH-SFI 04: (Men) Ability to Get and Maintain an Erection, Change from Baseline to Week 5 Mean (SE) [2]: −0.3 (0.48) | MGH-SFI 04: (Men) Ability to Get and Maintain an Erection, Change from Baseline to Week 5 Median [2]: −0.5 | MGH-SFI 04: (Men) Ability to Get and Maintain an Erection, Week 5 Mean (SE) [2]: 3.5 (0.50) | MGH-SFI 04: (Men) Ability to Get and Maintain an Erection, Week 5 Median [2]: 4.0 | MGH-SFI 05: Overall Sexual Satisfaction, Change from Baseline to Week 5 Mean (SE) [2]: −0.6 (0.34) | MGH-SFI 05: Overall Sexual Satisfaction, Change from Baseline to Week 5 Median [2]: −1.0 | MGH-SFI 05: Overall Sexual Satisfaction, Week 5 Mean (SE) [2]: 4.0 (0.39) | MGH-SFI 05: Overall Sexual Satisfaction, Week 5 Median [2]: 4.0 | MGH-SFI 06: Overall Improvement Since Last Medication Change, Week 5 Mean (SE) [2]: 3.8 (0.33) | MGH-SFI 06: Overall Improvement Since Last Medication Change, Week 5 Median [2]: 4.0 | MGH-SFI 04: (Men) Ability to Get and Maintain an Erection, Effect Size (Cohen's d) [2]: −0.526 | MGH-SFI 05: Overall Sexual Satisfaction, Effect Size (Cohen's d) [2]: 0.405 | MGH-SFI 06: Overall Improvement Since Last Medication Change, Effect Size (Cohen's d) [2]: 0.043 | MGH-SFI 02: Ability to Get Sexually Aroused or Excited, Change from Baseline to Week 5 Mean (SE) [3]: −0.9 (0.21) | MGH-SFI 02: Ability to Get Sexually Aroused or Excited, Change from Baseline to Week 5 Median [3]: −1.0 | MGH-SFI 02: Ability to Get Sexually Aroused or Excited, Week 5 Mean (SE) [3]: 3.9 (0.32) | MGH-SFI 02: Ability to Get Sexually Aroused or Excited, Week 5 Median [3]: 4.0 | MGH-SFI 03: Ability to Achieve Orgasm, Change from Baseline to Week 5 Mean (SE) [3]: −1.2 (0.33) | MGH-SFI 03: Ability to Achieve Orgasm, Change from Baseline to Week 5 Median [3]: 0.0 | MGH-SFI 03: Ability to Achieve Orgasm, Week 5 Mean (SE) [3]: 3.8 (0.33) | MGH-SFI 03: Ability to Achieve Orgasm, Week 5 Median [3]: 4.0 | MGH-SFI 04: (Men) Ability to Get and Maintain an Erection, Change from Baseline to Week 5 Mean (SE) [3]: 0.8 (0.48) | MGH-SFI 04: (Men) Ability to Get and Maintain an Erection, Change from Baseline to Week 5 Median [3]: 0.5 | MGH-SFI 04: (Men) Ability to Get and Maintain an Erection, Week 5 Mean (SE) [3]: 5.0 (0.71) | MGH-SFI 04: (Men) Ability to Get and Maintain an Erection, Week 5 Median [3]: 5.5 | MGH-SFI 05: Overall Sexual Satisfaction, Change from Baseline to Week 5 Mean (SE) [3]: −1.1 (0.34) | MGH-SFI 05: Overall Sexual Satisfaction, Change from Baseline to Week 5 Median [3]: 0.0 | MGH-SFI 05: Overall Sexual Satisfaction, Week 5 Mean (SE) [3]: 4.1 (0.34) | MGH-SFI 05: Overall Sexual Satisfaction, Week 5 Median [3]: 4.0 | MGH-SFI 06: Overall Improvement Since Last Medication Change, Week 5 Mean (SE) [3]: 3.3 (0.24) | MGH-SFI 06: Overall Improvement Since Last Medication Change, Week 5 Median [3]: 4.0 | MGH-SFI 02: Ability to Get Sexually Aroused or Excited, Effect Size (Cohen's d) [3]: 0.660 | MGH-SFI 03: Ability to Achieve Orgasm, Effect Size (Cohen's d) [3]: 0.869 | MGH-SFI 04: (Men) Ability to Get and Maintain an Erection, Effect Size (Cohen's d) [3]: −0.568 | MGH-SFI 05: Overall Sexual Satisfaction, Effect Size (Cohen's d) [3]: 0.757 | MGH-SFI 06: Overall Improvement Since Last Medication Change, Effect Size (Cohen's d) [3]: 0.531 | MGH-SFI 02: Ability to Get Sexually Aroused or Excited, Change from Baseline to Week 5 Mean (SE) [4]: −0.4 (0.21) | MGH-SFI 02: Ability to Get Sexually Aroused or Excited, Change from Baseline to Week 5 Median [4]: 0.0 | MGH-SFI 02: Ability to Get Sexually Aroused or Excited, Week 5 Mean (SE) [4]: 4.4 (0.46) | MGH-SFI 02: Ability to Get Sexually Aroused or Excited, Week 5 Median [4]: 5.0 | MGH-SFI 03: Ability to Achieve Orgasm, Change from Baseline to Week 5 Mean (SE) [4]: −0.5 (0.27) | MGH-SFI 03: Ability to Achieve Orgasm, Change from Baseline to Week 5 Median [4]: 0.0 | MGH-SFI 03: Ability to Achieve Orgasm, Week 5 Mean (SE) [4]: 4.5 (0.54) | MGH-SFI 03: Ability to Achieve Orgasm, Week 5 Median [4]: 5.0 | MGH-SFI 04: (Men) Ability to Get and Maintain an Erection, Change from Baseline to Week 5 Mean (SE) [4]: −1.6 (0.51) | MGH-SFI 04: (Men) Ability to Get and Maintain an Erection, Change from Baseline to Week 5 Median [4]: −2.0 | MGH-SFI 04: (Men) Ability to Get and Maintain an Erection, Week 5 Mean (SE) [4]: 2.8 (0.92) | MGH-SFI 04: (Men) Ability to Get and Maintain an Erection, Week 5 Median [4]: 2.0 | MGH-SFI 05: Overall Sexual Satisfaction, Change from Baseline to Week 5 Mean (SE) [4]: −0.8 (0.39) | MGH-SFI 05: Overall Sexual Satisfaction, Change from Baseline to Week 5 Median [4]: 0.0 | MGH-SFI 05: Overall Sexual Satisfaction, Week 5 Mean (SE) [4]: 4.2 (0.58) | MGH-SFI 05: Overall Sexual Satisfaction, Week 5 Median [4]: 5.0 | MGH-SFI 06: Overall Improvement Since Last Medication Change, Week 5 Mean (SE) [4]: 3.5 (0.40) | MGH-SFI 06: Overall Improvement Since Last Medication Change, Week 5 Median [4]: 4.0 | MGH-SFI 02: Ability to Get Sexually Aroused or Excited, Effect Size (Cohen's d) [4]: −0.075 | MGH-SFI 03: Ability to Achieve Orgasm, Effect Size (Cohen's d) [4]: 0.169 | MGH-SFI 04: (Men) Ability to Get and Maintain an Erection, Effect Size (Cohen's d) [4]: 1.174 | MGH-SFI 05: Overall Sexual Satisfaction, Effect Size (Cohen's d) [4]: 0.555 | MGH-SFI 06: Overall Improvement Since Last Medication Change, Effect Size (Cohen's d) [4]: 0.406 | MGH-SFI 01: Interest in Sex, Change from Baseline to Week 5 Mean (SE) (Stage 1): −1.0 (0.24) | MGH-SFI 01: Interest in Sex, Change from Baseline to Week 5 Median (Stage 1): −1.0 | MGH-SFI 01: Interest in Sex, Week 5 Mean (SE) (Stage 1): 3.9 (0.32) | MGH-SFI 01: Interest in Sex, Week 5 Median (Stage 1): 4.0 | MGH-SFI 01: Interest in Sex, Effect Size (Cohen's d) (Stage 1): 0.649 | MGH-SFI 01: Interest in Sex, Change from Baseline to Week 5 Mean (SE) (Stage 2): −0.6 (0.24) | MGH-SFI 01: Interest in Sex, Change from Baseline to Week 5 Median (Stage 2): 0.0 | MGH-SFI 01: Interest in Sex, Week 5 Mean (SE) (Stage 2): 4.4 (0.45) | MGH-SFI 01: Interest in Sex, Week 5 Median (Stage 2): 5.0 | MGH-SFI 01: Interest in Sex, Effect Size (Cohen's d) (Stage 2): 0.468
